Data: patent US20230399312A1, “SUBSTITUTED PYRIMIDINES AND METHODS OF USE” (THERAVANCE BIOPHARMA R&D IP, LLC, priority 2020, published 2023)

Experiments:
[1] = system: TGF-β-stimulated SMAD3 phosphorylation in BEAS-2B cells; test: Cellular ALK5 potency assay, inhibition of TGF-β stimulated pSMAD3 formation in BEAS-2B cells; assay type: cell-based; conditions: Homo sapiens, pSMAD3, TGF-β 10 ng/mL, read-out: BEAS2B pIC50 (converted)
In short: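 Cells were seeded overnight, rinsed into HEPES/BSA-supplemented HBSS, and dosed with serially diluted compound for 1 h at 37 °C, 5% CO2. TGF-β stimulation (10 ng/mL final) followed for 30 min, then lysis and AlphaLISA pSMAD3 measurement; potency reported as pIC50.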

[2] = target: T1, recombinant human ALK5 (TGF-βR1) protein (Homo sapiens, UniProt P36897); test: Biochemical ALK5 (TGF-βR1) assay to measure pKi (LANCE Ultra ULight kinase assay); conditions: apparent pKi, converted from pIC50 by Cheng-Prusoff
T1 construct: purchased Life Technologies PR9075A
T1 sequence (P36897 34-503): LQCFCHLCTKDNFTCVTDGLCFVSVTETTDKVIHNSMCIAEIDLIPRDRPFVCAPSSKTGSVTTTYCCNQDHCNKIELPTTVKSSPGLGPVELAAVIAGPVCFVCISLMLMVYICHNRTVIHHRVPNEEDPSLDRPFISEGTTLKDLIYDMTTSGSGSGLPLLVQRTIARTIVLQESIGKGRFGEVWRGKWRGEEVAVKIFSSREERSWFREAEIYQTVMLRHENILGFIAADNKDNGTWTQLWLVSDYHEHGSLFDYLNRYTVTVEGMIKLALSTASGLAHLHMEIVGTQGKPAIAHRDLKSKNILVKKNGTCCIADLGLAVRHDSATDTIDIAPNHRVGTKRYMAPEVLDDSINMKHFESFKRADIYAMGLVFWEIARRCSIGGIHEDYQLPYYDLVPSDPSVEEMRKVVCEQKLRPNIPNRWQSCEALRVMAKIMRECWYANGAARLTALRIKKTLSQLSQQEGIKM
In short: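 Europium TR-FRET kinase assay: the enzyme is exposed to compound for 60 min at room temperature, and reaction with ATP runs 60 min at 37 °C. Percent inhibition relative to DMSO and SD-208 controls gives pIC50, which is converted to pKi.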

Compound | Ki [2] | IC50 [1]
Cc1cccc(-c2nc(Nc3ccnc(Nc4ccc(C(=O)O)cn4)n3)c3cccn3n2)n1 [Compound 1020] | 3.98 to 31.6 nM | 200 to 1260 nM
Cc1cccc(-c2nccc(Nc3ccnc(Nc4ccc(N5CCC(C(=O)OC6CCN(C)C6)CC5)cc4)n3)n2)n1 (stereo not drawn) [Compound 472, (1-methylpyrrolidin-3-yl) 1-[4-[[4-[[2-(6-methyl-2-pyridyl)pyrimidin-4-yl]amino]pyrimidin-2-yl]amino]phenyl]piperidine-4-carboxylate] | 0.0398 to 0.316 nM | 25.1 to 158 nM
Cc1cccc(-c2nccc(Nc3ccnc(Nc4csc(C(=O)OC[C@@H]5CCCN5)c4)n3)n2)n1 [Compound 637, [(2S)-pyrrolidin-2-yl]methyl 4-[[4-[[2-(6-methyl-2-pyridyl)pyrimidin-4-yl]amino]pyrimidin-2-yl]amino]thiophene-2-carboxylate] | 0.0398 to 0.316 nM | 25.1 to 158 nM
Fc1ccc(Cl)cc1-c1nccc(Nc2ccnc(Nc3ccc(CN4CCOCC4)cc3)n2)n1 [Compound 165, N4-[2-(5-chloro-2-fluoro-phenyl)pyrimidin-4-yl]-N2-[4-(morpholinomethyl)phenyl] pyrimidine-2,4-diamine] | 3.98 to 31.6 nM | 25.1 to 158 nM
Cc1cccc(-c2nccc(Nc3ccnc(Nc4ccc(NCCN5C[C@@H](C)N[C@@H](C)C5)cc4)n3)n2)n1 [Compound 263, N4-[2-(6-methyl-2-pyridyl)pyrimidin-4-yl]-N2-[4-[2-[rac-(3S,5R)-3,5-dimethylpiperazin-1-yl]ethylamino]phenyl] pyrimidine-2,4-diamine] | 0.0398 to 0.316 nM | 25.1 to 158 nM
Cc1cccc(-c2nccc(Nc3ccnc(Nc4cc(C(=O)O[C@H]5CCN(C)C5)cs4)n3)n2)n1 [Compound 345, [(3S)-1-methylpyrrolidin-3-yl] 5-[[4-[[2-(6-methyl-2-pyridyl)pyrimidin-4-yl]amino]pyrimidin-2-yl]amino]thiophene-3-carboxylate] | 0.0398 to 0.316 nM | 25.1 to 158 nM
Cc1cccc(-c2nccc(Nc3ccnc(Nc4ccc(N5CCC(C(=O)OC6CCNCC6)CC5)cc4)n3)n2)n1 [Compound 218, 4-piperidyl 1-[4-[[4-[[2-(6-methyl-2-pyridyl)pyrimidin-4-yl]amino]pyrimidin-2-yl]amino]phenyl]piperidine-4-carboxylate] | 0.0398 to 0.316 nM | 25.1 to 158 nM
Cc1cccc(-c2nccc(Nc3ccnc(Nc4ccc(N5C[C@H]6CC[C@@H](C5)N6)cc4)n3)n2)n1 [Compound 34, N4-[2-(6-methyl-2-pyridyl)pyrimidin-4-yl]-N2-[4-[rac-(1S,5R)-3,8-diazabicyclo[3.2.1]octan-3-yl]phenyl]pyrimidine-2,4-diamine] | 0.0398 to 0.316 nM | 25.1 to 158 nM
Cc1cccc(-c2nc(Nc3ccnc(Nc4ccc(NC(=O)C5(CO)CNC5)cc4)n3)c3cccn3n2)n1 [Compound 1031, 3-(hydroxymethyl)-N-[4-[[4-[[2-(6-methyl-2-pyridyl)pyrrolo[2,1-f][1,2,4]triazin-4-yl]amino]pyrimidin-2-yl]amino]phenyl]azetidine-3-carboxamide] | 0.0398 to 0.316 nM | 25.1 to 158 nM
Cc1cccc(-c2nccc(Nc3ccnc(Nc4ccc(N5CC(CN)C5)cc4)n3)n2)n1 [Compound 186, N2-[4-[3-(aminomethyl)azetidin-1-yl]phenyl]-N4-[2-(6-methyl-2-pyridyl)pyrimidin-4-yl]pyrimidine-2,4-diamine] | 0.0398 to 0.316 nM | 25.1 to 158 nM
Cc1cccc(-c2nccc(Nc3ccnc(Nc4cc(C(=O)O[C@H]5CCNC5)ccn4)n3)n2)n1 [Compound 632, [(3S)-pyrrolidin-3-yl] 2-[[4-[[2-(6-methyl-2-pyridyl)pyrimidin-4-yl]amino]pyrimidin-2-yl]amino]pyridine-4-carboxylate] | 3.98 to 31.6 nM | 25.1 to 158 nM
Cc1cccc(-c2nc(Nc3ccnc(Nc4ccc(C(=O)NCC5CNC5)cc4)n3)c3cccn3n2)n1 [Compound 1035, N-(azetidin-3-ylmethyl)-4-[[4-[[2-(6-methyl-2-pyridyl)pyrrolo[2,1-f][1,2,4]triazin-4-yl]amino]pyrimidin-2-yl]amino]benzamide] | 0.0398 to 0.316 nM | 25.1 to 158 nM
Cc1cccc(-c2nccc(Nc3ccnc(Nc4cnn(CCCN)c4)n3)n2)n1 [Compound 286, N2-[1-(3-aminopropyl)pyrazol-4-yl]-N4-[2-(6-methyl-2-pyridyl)pyrimidin-4-yl]pyrimidine-2,4-diamine] | 0.0398 to 0.316 nM | 200 to 1260 nM
CN1CCN(C2CCN(c3ccc(Nc4nccc(Nc5ccnc(-c6ccccc6F)n5)n4)cc3)CC2)CC1 [Compound 446, N4-[2-(2-fluorophenyl)pyrimidin-4-yl]-N2-[4-[4-(4-methylpiperazin-1-yl)-1-piperidyl]phenyl]pyrimidine-2,4-diamine] | 0.398 to 3.16 nM | 25.1 to 158 nM

Now from value to compound, other results behind:

Ki [2] | Compound | IC50 [1]
0.0398 to 0.316 nM | Cc1cccc(-c2nccc(Nc3ccnc(Nc4ccc(CN5CCC(C(=O)O[C@@H]6CCN(C)C6)CC5)cc4)n3)n2)n1 [Compound 414, (R)-1-methylpyrrolidin-3-yl 1-(4-((4-((2-(6-methylpyridin-2-yl)pyrimidin-4-yl)amino)pyrimidin-2-yl)amino)benzyl)piperidine-4-carboxylate] | 25.1 to 158 nM
0.0398 to 0.316 nM | COC(=O)C1CCCN(c2ccc(Nc3nccc(Nc4ccnc(-c5cccc(C)n5)n4)n3)cc2)C1 (stereo not drawn) [Compound 83, methyl 1-[4-[[4-[[2-(6-methyl-2-pyridyl)pyrimidin-4-yl]amino]pyrimidin-2-yl]amino]phenyl]piperidine-3-carboxylate] | 25.1 to 158 nM
0.0398 to 0.316 nM | Cc1cccc(-c2nccc(Nc3ccnc(Nc4ccc(CN5CCCC(C(=O)NCC6CNC6)C5)cc4)n3)n2)n1 (stereo not drawn) [Compound 495, N-(azetidin-3-ylmethyl)-1-[[4-[[4-[[2-(6-methyl-2-pyridyl)pyrimidin-4-yl]amino]pyrimidin-2-yl]amino]phenyl]methyl] piperidine-3-carboxamide] | 25.1 to 158 nM
0.0398 to 0.316 nM | Cc1cccc(-c2nccc(Nc3ccnc(Nc4ccc(CN5CCC(C(=O)O[C@@H]6CCNC6)CC5)cc4)n3)n2)n1 [Compound 313, [(3R)-pyrrolidin-3-yl] 1-[[4-[[4-[[2-(6-methyl-2-pyridyl)pyrimidin-4-yl]amino]pyrimidin-2-yl]amino]phenyl]methyl] piperidine-4-carboxylate] | 25.1 to 158 nM
0.0398 to 0.316 nM | Cc1cccc(-c2nccc(Nc3ccnc(Nc4ccc(CN5CCSCC5)cc4)n3)n2)n1 [Compound 104, N4-[2-(6-methyl-2-pyridyl)pyrimidin-4-yl]-N2-[4-(thiomorpholinomethyl)phenyl] pyrimidine-2,4-diamine] | 25.1 to 158 nM
0.0398 to 0.316 nM | Cc1cccc(-c2nccc(Nc3ccnc(Nc4ccc(CN5CCC[C@H](C(=O)O)C5)cc4)n3)n2)n1 [Compound 224, (3S)-1-[[4-[[4-[[2-(6-methyl-2-pyridyl)pyrimidin-4-yl]amino]pyrimidin-2-yl]amino]phenyl]methyl] piperidine-3-carboxylic acid] | 200 to 1260 nM
0.0398 to 0.316 nM | Cc1cccc(-c2nccc(Nc3ccnc(Nc4ccc(NC(=O)C5(O)CCNC5)cc4)n3)n2)n1 (stereo not drawn) [Compound 58, 3-hydroxy-N-[4-[[4-[[2-(6-methyl-2-pyridyl)pyrimidin-4-yl]amino]pyrimidin-2-yl]amino]phenyl]pyrrolidine-3-carboxamide] | ≤ 20 nM
